Test results as given in ChEMBL document CHEMBL1201862, “PubChem BioAssay data set” (2004).
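Where inhibition never reached the appropriate level, the endpoint shown equals the highest concentration tested. Otherwise, values were interpolated linearly from a five-concentration, 48-hour dose response in 96-well plates. Abbreviation: GI50, concentration required for 50% inhibition of growth.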 The source made the active and inactive calls. No stated cut-off is given here; in the data, active = GI50 up to about 1.1 µM and inactive = higher.

Assays:
Experiment in all cases: inhibition of tumour cell growth, NCI panel, 48 h
SNB-75 = system: SNB-75
DU-145 = system: DU-145
UACC-62 = system: UACC-62
SNB-19 = system: SNB-19
IGROV-1 = system: IGROV-1
CAKI-1 = system: CAKI-1
SK-MEL-2 = system: SK-MEL-2
786-0 = system: 786-0
SF-268 = system: SF-268
COLO 205 = system: COLO 205
CCRF-CEM = system: CCRF-CEM
MOLT-4 = system: MOLT-4
NCI-H522 = system: NCI-H522
SF-539 = system: SF-539
MCF7 = system: MCF7
T47D = system: T47D
M14 = system: M14
OVCAR-4 = system: OVCAR-4
SF-295 = system: SF-295
RXF 393 = system: RXF 393
ACHN = system: ACHN
OVCAR-8 = system: OVCAR-8
MDA-N = system: MDA-N
BT-549 = system: BT-549
NCI-H226 = system: NCI-H226
TK-10 = system: TK-10
OVCAR-3 = system: OVCAR-3
A549 = system: A549
PC-3 = system: PC-3
SN12C = system: SN12C
A498 = system: A498
SK-MEL-5 = system: SK-MEL-5
HCT-15 = system: HCT-15
NCI-H460 = system: NCI-H460
Hs-578T = system: Hs-578T
UO-31 = system: UO-31
HT-29 = system: HT-29
MDA-MB-435 = system: MDA-MB-435
U-251 = system: U-251
Malme-3M = system: Malme-3M
HCC 2998 = system: HCC 2998
HOP-62 = system: HOP-62
SR = system: SR
OVCAR-5 = system: OVCAR-5
UACC-257 = system: UACC-257
EKVX = system: EKVX
MDA-MB-231 = system: MDA-MB-231
KM12 = system: KM12
SW-620 = system: SW-620
HOP-92 = system: HOP-92
RPMI-8226 = system: RPMI-8226
NCI-H23 = system: NCI-H23
HL-60 = system: HL-60
SK-OV-3 = system: SK-OV-3
NCI/ADR-RES = system: NCI/ADR-RES
HCT-116 = system: HCT-116
K562 = system: K562
LOX IMVI = system: LOX IMVI
SK-MEL-28 = system: SK-MEL-28

Compound: C=CCN1C(=O)/C(=C/c2cccs2)N=C1SC/C=C/C
- GI50 (SNB-75): 17.3 µM (inactive)
- GI50 (DU-145): 63.1 µM (inactive)
- GI50 (UACC-62): 32.4 µM (inactive)
- GI50 (SNB-19): 80.9 µM (inactive)
- GI50 (IGROV-1): 63.8 µM (inactive)
- GI50 (CAKI-1): 46.9 µM (inactive)
- GI50 (SK-MEL-2): 27.2 µM (inactive)
- GI50 (786-0): 36.8 µM (inactive)
- GI50 (SF-268): 46.5 µM (inactive)
- GI50 (COLO 205): 31.6 µM (inactive)
- GI50 (CCRF-CEM): 34.8 µM (inactive)
- GI50 (MOLT-4): 14.7 µM (inactive)
- GI50 (NCI-H522): 26.9 µM (inactive)
- GI50 (SF-539): 58.3 µM (inactive)
- GI50 (MCF7): 26.4 µM (inactive)
- GI50 (T47D): 21 µM (inactive)
- GI50 (M14): 69.5 µM (inactive)
- GI50 (OVCAR-4): 23.3 µM (inactive)
- GI50 (SF-295): 40.4 µM (inactive)
- GI50 (RXF 393): 22.8 µM (inactive)
- GI50 (ACHN): 35.5 µM (inactive)
- GI50 (OVCAR-8): 37.6 µM (inactive)
- GI50 (MDA-N): 24.7 µM (inactive)
- GI50 (BT-549): 39.1 µM (inactive)
- GI50 (NCI-H226): > 100 µM (inactive)
- GI50 (TK-10): 92 µM (inactive)
- GI50 (OVCAR-3): 44.8 µM (inactive)
- GI50 (A549): 40.7 µM (inactive)
- GI50 (PC-3): 35.6 µM (inactive)
- GI50 (SN12C): 26.3 µM (inactive)
- GI50 (A498): 27 µM (inactive)
- GI50 (SK-MEL-5): 19.1 µM (inactive)
- GI50 (HCT-15): 33.5 µM
- GI50 (NCI-H460): 38.3 µM (inactive)
- GI50 (Hs-578T): 32.7 µM (inactive)
- GI50 (UO-31): 44.2 µM (inactive)
- GI50 (HT-29): 34.6 µM (inactive)
- GI50 (MDA-MB-435): 34.5 µM (inactive)
- GI50 (U-251): 37.7 µM (inactive)
- GI50 (Malme-3M): 34 µM (inactive)
- GI50 (HCC 2998): 48.3 µM (inactive)
- GI50 (HOP-62): > 100 µM (inactive)
- GI50 (SR): 18.5 µM (inactive)
- GI50 (OVCAR-5): 65.6 µM (inactive)
- GI50 (UACC-257): 40.3 µM (inactive)
- GI50 (EKVX): 33.6 µM (inactive)
- GI50 (MDA-MB-231): 68.1 µM (inactive)
- GI50 (KM12): 31.3 µM (inactive)
- GI50 (SW-620): 35.6 µM (inactive)
- GI50 (HOP-92): 24.6 µM (inactive)
- GI50 (RPMI-8226): 16.9 µM (inactive)
- GI50 (NCI-H23): 44.7 µM (inactive)
- GI50 (HL-60): 21.3 µM (inactive)
- GI50 (SK-OV-3): 95.3 µM (inactive)
- GI50 (NCI/ADR-RES): 39.1 µM (inactive)
- GI50 (HCT-116): 26.3 µM (inactive)
- GI50 (K562): 32.5 µM (inactive)
- GI50 (LOX IMVI): 36.1 µM (inactive)
- GI50 (SK-MEL-28): 54.1 µM (inactive)

Compound: COC(=O)C1=CON2C3CC4CC(C3)CC(C4)C12C (stereo not drawn)
- GI50 (SNB-75): > 100 µM (inactive)
- GI50 (DU-145): > 100 µM (inactive)
- GI50 (UACC-62): > 100 µM (inactive)
- GI50 (SNB-19): > 100 µM (inactive)
- GI50 (IGROV-1): > 100 µM (inactive)
- GI50 (CAKI-1): > 100 µM (inactive)
- GI50 (SK-MEL-2): > 100 µM (inactive)
- GI50 (786-0): > 100 µM (inactive)
- GI50 (SF-268): > 100 µM (inactive)
- GI50 (COLO 205): > 100 µM (inactive)
- GI50 (CCRF-CEM): > 100 µM (inactive)
- GI50 (MOLT-4): > 100 µM (inactive)
- GI50 (NCI-H522): > 100 µM (inactive)
- GI50 (SF-539): > 100 µM (inactive)
- GI50 (MCF7): > 100 µM (inactive)
- GI50 (T47D): > 100 µM (inactive)
- GI50 (M14): > 100 µM (inactive)
- GI50 (OVCAR-4): > 100 µM (inactive)
- GI50 (SF-295): > 100 µM (inactive)
- GI50 (RXF 393): > 100 µM (inactive)
- GI50 (ACHN): > 100 µM (inactive)
- GI50 (OVCAR-8): > 100 µM (inactive)
- GI50 (MDA-N): > 100 µM (inactive)
- GI50 (BT-549): > 100 µM (inactive)
- GI50 (NCI-H226): > 100 µM (inactive)
- GI50 (TK-10): > 100 µM (inactive)
- GI50 (OVCAR-3): > 100 µM (inactive)
- GI50 (A549): > 100 µM (inactive)
- GI50 (PC-3): > 100 µM (inactive)
- GI50 (SN12C): > 100 µM (inactive)
- GI50 (A498): > 100 µM (inactive)
- GI50 (SK-MEL-5): > 100 µM (inactive)
- GI50 (HCT-15): > 100 µM
- GI50 (NCI-H460): > 100 µM (inactive)
- GI50 (Hs-578T): > 100 µM (inactive)
- GI50 (UO-31): > 100 µM (inactive)
- GI50 (HT-29): > 100 µM (inactive)
- GI50 (MDA-MB-435): > 100 µM (inactive)
- GI50 (U-251): > 100 µM (inactive)
- GI50 (Malme-3M): > 100 µM (inactive)
- GI50 (HCC 2998): > 100 µM (inactive)
- GI50 (HOP-62): > 100 µM (inactive)
- GI50 (SR): > 100 µM (inactive)
- GI50 (OVCAR-5): > 100 µM (inactive)
- GI50 (UACC-257): > 100 µM (inactive)
- GI50 (EKVX): > 100 µM (inactive)
- GI50 (MDA-MB-231): > 100 µM (inactive)
- GI50 (KM12): > 100 µM (inactive)
- GI50 (SW-620): > 100 µM (inactive)
- GI50 (HOP-92): > 100 µM (inactive)
- GI50 (RPMI-8226): > 100 µM (inactive)
- GI50 (NCI-H23): > 100 µM (inactive)
- GI50 (HL-60): > 100 µM (inactive)
- GI50 (SK-OV-3): > 100 µM (inactive)
- GI50 (NCI/ADR-RES): > 100 µM (inactive)
- GI50 (HCT-116): > 100 µM (inactive)
- GI50 (K562): > 100 µM (inactive)
- GI50 (LOX IMVI): > 100 µM (inactive)
- GI50 (SK-MEL-28): > 100 µM (inactive)
